Data on five compounds can be found in paper PMC9146500, “New Quinoline–Urea–Benzothiazole Hybrids as Promising Antitubercular Agents: Synthesis, In Vitro Antitubercular Activity, Cytotoxicity Studies, and In Silico ADME Profiling” (Pharmaceuticals, 2022).

Converted amounts (≈) assume the structure as drawn. Read-outs that look alike come from different tables or passages of the source.

One data set deals with HepG2 cells. Description: MTT cytotoxicity assay. The note with it: HepG2, 24 h, MTT; for IC20: concentration at which cells retain 80% viability, extrapolated from the dose–response curve.
A further data set can be described thus: MTT cytotoxicity assay. The note with it: human; for IC20 at 24 h: IC20, HepG2, 24 h, MTT, concentration at which cells retain 80% viability, extrapolated from the dose–response curve.
The subject of data set [1] is Mycobacterium tuberculosis H37Rv pMSp12::GFP. The experiment in a line: microbe, parasite or virus in culture. It counts as cell-based. The note with it: Mycobacterium tuberculosis, 168 h, Mtb H37Rv, protein-rich media, 7 days, read-out: MIC90 7H9/ADC/GLU/Tw 7 Days; for MIC90: H37RV.
Data set [2] shares this test system. Description: microbe, parasite or virus in culture. It counts as cell-based. The settings on record: Mtb H37Rv.
For data set [3] the following is noted: cited from earlier work.
[4] abbreviates: Mycobacterium tuberculosis, H37RV, 168 h, protein-poor media, 7 days, read-out: MIC90 7H9/CAS/GLU/Tx 7 Days.

For `O=C(NCCNc1ccnc2cc(Cl)ccc12)Nc1nc2ccc(Br)cc2s1` [Compound 6g, 1-(6-Bromobenzo[d]thiazol-2-yl)-3-(2-((7-chloroquinolin-4-yl)amino)ethyl)urea], the concentration for an effect of 20% (IC20) – broadly, the concentration at which the effect reaches the 20% level – with HepG2 cells is 4.26 µM. Also, in the data set “MTT cytotoxicity assay”, the viability (usually a read-out of living cells in per cent, often relative to untreated cells) at 24 h was found to be 48% and the 20% effect concentration (IC20) at 24 h was 7.47 µM. Besides, the MIC in data set [1] was 14.9 µM (≈ 7.1 µg/mL). In data set [2] (Mycobacterium tuberculosis, 168 h, protein-poor media, 7 days, read-out: MIC90 7H9/CAS/GLU/Tx 7 Days), the MIC is 8.89 µM (≈ 4.24 µg/mL). Moreover, the MIC90 in data set [2] (Mycobacterium tuberculosis, H37RV, both media (CAS and ADC) or medium not given, read-out: MIC90) lay within 8.89 to 14.9 µM (≈ 4.24 to 7.1 µg/mL).
For the compound `CC(C)=CCC/C(C)=C/CNCCNC1C2CC3CC(C2)CC1C3` (centres unmarked) [SQ-109], the “clog P” value in data set [3] was 6.82.
Consider `O=C(NCCCCNc1ccnc2cc(Cl)ccc12)Nc1nc2ccc(Br)cc2s1` [Compound 6p], for which the IC20 with HepG2 cells was 2.13 µM. The MIC90 cell viability in the data set on HepG2 cells (viability at the compound's MIC90 in the CAS assay, extrapolated from the curve) is on record as 56%. In data set [2] (protein-poor media, 7 days, read-out: MIC90 7H9/CAS/GLU/Tx 7 Days), the MIC90 was 7.812 µM (≈ 3.94 µg/mL).
Take `O=C(NCCCNc1ccnc2cc(Cl)ccc12)Nc1nc2ccc(C(F)(F)F)cc2s1` [Compound 6i, 1-(3-((7-Chloroquinolin-4-yl)amino)propyl)-3-(6-(trifluoromethyl)benzo[d]thiazol-2-yl)urea]: the melting point (usually the temperature of the solid-liquid transition) was 198 to 200 °C. Also, in the data set “MTT cytotoxicity assay”, the viability at 24 h came out at 87% and the IC20 at 24 h is 11.2 µM. Further, the MIC90 in data set [1] worked out at 12.8 µM (≈ 6.16 µg/mL). In addition, the MIC90 in data set [2] (setting [4]) came out at 7.81 µM (≈ 3.75 µg/mL).
`CC(CNc1ccnc2cc(Cl)ccc12)NC(=O)Nc1nc2ccc(Cl)cc2s1` (centres unmarked) [Compound 6y, 1-(1-((7-Chloroquinolin-4-yl)amino)propan-2-yl)-3-(6-chlorobenzo[d]thiazol-2-yl)urea]: the melting point lay within 301 to 304 °C. Further, in the data set “MTT cytotoxicity assay”, the viability at 24 h was determined as 78% and the 20% effect concentration (IC20) at 24 h was 2.22 µM. Further, the MIC90 in data set [1] was found to be 8.46 µM (≈ 3.77 µg/mL). In data set [2] (setting [4]), the MIC90 was determined as 2.33 µM (≈ 1.04 µg/mL).
